pIC50: −log10 of the molar value. Active and inactive are the calls of the source. The calls are words filed in the database; no cut-off is given here.
How the values were obtained:
[1] = biological target: Signal transducer and activator of transcription 3 (Homo sapiens) (UniProt P40763); test: Inhibition of STAT3 phosphorylation at Tyr705 in human MDA-MB-468 cells after 24 hrs by Western blot analysis; format: cell-based
MCF7 = test: Cytotoxicity against human MCF7 cells assessed as cell viability at 10 to 500 nM after 24 hrs by WST1 assay; format: functional, cell-based
HCT-116 = test: Cytotoxicity against human HCT116 cells assessed as cell viability at 10 to 500 nM after 24 hrs by WST1 assay; format: functional, cell-based
[2] = biological target: Signal transducer and activator of transcription 3 (Homo sapiens) (UniProt P40763); test: Inhibition of STAT3 expressed in human HeLa cells after 24 hrs by renilla dual-luciferase reporter gene assay; format: cell-based
DU-145 = test: Cytotoxicity against human DU145 cells assessed as cell viability after 24 hrs by WST1 assay; format: functional, cell-based
MDA-MB-468 [3] = test: Cytotoxicity against human MDA-MB-468 cells assessed as cell viability after 24 hrs by WST1 assay; format: functional, cell-based
MDA-MB-468 [4] = test: Effect on STAT3 protein level in human MDA-MB-468 cells after 24 hrs by Western blot analysis; format: functional, cell-based
[5] = biological target: Signal transducer and activator of transcription 3 (Homo sapiens) (UniProt P40763); test: Inhibition of translocation of STAT3 into nucleus in human MDA-MB-468 cells at 200 nM after 24 hrs […] by immunoblotting method; format: cell-based
[6] = biological target: Signal transducer and activator of transcription 3 (Homo sapiens) (UniProt P40763); test: Suppression of STAT3 mediated Mcl-1 expression in human MDA-MB-468 cells assessed as complete inhibition at 200 nM by immunoblotting assay; format: cell-based
[7] = biological target: Signal transducer and activator of transcription 3 (Homo sapiens) (UniProt P40763); test: Suppression of STAT3 mediated VEGF expression in human MDA-MB-468 cells by immunoblotting assay; format: cell-based
MDA-MB-468 [8] = test: Cell cycle arrest in human MDA-MB-468 cells assessed as accumulation at G0/G1 phase at 50 nM after 24 hrs using propidium iodide staining by FACS flow cytometry (reference value: 49.13%); format: functional
[9] = biological target: Signal transducer and activator of transcription 3 (Homo sapiens) (UniProt P40763); test: Inhibition of STAT3 phosphorylation at Ser727 in human MDA-MB-468 cells after 24 hrs by Western blot analysis; format: cell-based
MDA-MB-468 [10] = test: Cell cycle arrest in human MDA-MB-468 cells assessed as accumulation at S phase at 200 nM after 24 hrs using propidium iodide staining by FACS flow cytometry (reference value: 12.46%); format: functional
[11] = biological target: Signal transducer and activator of transcription 3 (Homo sapiens) (UniProt P40763); test: Inhibition of translocation of STAT3 into nucleus in human MDA-MB-468 cells assessed as localization in cytoplasm at 200 nM after 24 hrs […] by Western blotting method; format: cell-based
[12] = biological target: Signal transducer and activator of transcription 3 (Homo sapiens) (UniProt P40763); test: Suppression of STAT3 mediated survivin expression in human MDA-MB-468 cells by immunoblotting assay; format: cell-based
[13] = biological target: Signal transducer and activator of transcription 3 (Homo sapiens) (UniProt P40763); test: Suppression of STAT3 mediated Bcl-XL expression in human MDA-MB-468 cells assessed as complete inhibition at 200 nM by immunoblotting assay; format: cell-based
[14] = biological target: Signal transducer and activator of transcription 3 (Homo sapiens) (UniProt P40763); test: Suppression of STAT3 mediated Bcl-XL expression in human MDA-MB-468 cells by immunoblotting assay; format: cell-based
MDA-MB-468 [15] = test: Cell cycle arrest in human MDA-MB-468 cells assessed as accumulation at subG1 phase at 50 nM after 24 hrs using propidium iodide staining by FACS flow cytometry (reference value: 7.01%); format: functional
[16] = biological target: Signal transducer and activator of transcription 3 (Homo sapiens) (UniProt P40763); test: Inhibition of STAT3 phosphorylation at Tyr705 in human MDA-MB-468 cells at 500 nM after 24 hrs by Western blot analysis; format: cell-based
MDA-MB-468 [17] = test: Cell cycle arrest in human MDA-MB-468 cells assessed as accumulation at G2/M phase at 50 nM after 24 hrs using propidium iodide staining by FACS flow cytometry (reference value: 31.39%); format: functional
[18] = biological target: Signal transducer and activator of transcription 3 (Homo sapiens) (UniProt P40763); test: Suppression of STAT3 mediated cyclinD1 expression in human MDA-MB-468 cells by immunoblotting assay; format: cell-based
MDA-MB-468 [19] = test: Cell cycle arrest in human MDA-MB-468 cells assessed as accumulation at S phase at 500 nM after 24 hrs using propidium iodide staining by FACS flow cytometry (reference value: 12.46%); format: functional
MDA-MB-468 [20] = test: Induction apoptosis in human MDA-MB-468 cells assessed as procaspase-3-mediated PARP cleavage after 24 hrs by Western blotting method; format: functional, cell-based
MDA-MB-468 [21] = test: Cell cycle arrest in human MDA-MB-468 cells assessed as accumulation at G0/G1 phase at 200 nM after 24 hrs using propidium iodide staining by FACS flow cytometry (reference value: 49.13%); format: functional
MDA-MB-468 [22] = test: Cell cycle arrest in human MDA-MB-468 cells assessed as accumulation at subG1 phase at 500 nM after 24 hrs using propidium iodide staining by FACS flow cytometry (reference value: 7.01%); format: functional
MDA-MB-468 [23] = test: Cell cycle arrest in human MDA-MB-468 cells assessed as accumulation at subG1 phase at 200 nM after 24 hrs using propidium iodide staining by FACS flow cytometry (reference value: 7.01%); format: functional
MDA-MB-468 [24] = test: Cell cycle arrest in human MDA-MB-468 cells assessed as accumulation at G0/G1 phase at 500 nM after 24 hrs using propidium iodide staining by FACS flow cytometry (reference value: 49.13%); format: functional
[25] = biological target: Signal transducer and activator of transcription 3 (Homo sapiens) (UniProt P40763); test: Suppression of STAT3 mediated cyclinD1 expression in human MDA-MB-468 cells at G0/G1 phase by immunoblotting assay; format: cell-based
MDA-MB-468 [26] = test: Cell cycle arrest in human MDA-MB-468 cells assessed as accumulation at S phase at 50 nM after 24 hrs using propidium iodide staining by FACS flow cytometry (reference value: 12.46%); format: functional
MDA-MB-468 [27] = test: Cell cycle arrest in human MDA-MB-468 cells assessed as accumulation at G2/M phase at 200 nM after 24 hrs using propidium iodide staining by FACS flow cytometry (reference value: 31.39%); format: functional
MDA-MB-468 [28] = test: Cell cycle arrest in human MDA-MB-468 cells assessed as accumulation at G2/M phase at 500 nM after 24 hrs using propidium iodide staining by FACS flow cytometry (reference value: 31.39%); format: functional
[29] = biological target: Signal transducer and activator of transcription 3 (Homo sapiens) (UniProt P40763); test: Suppression of STAT3 mediated Mcl-1 expression in human MDA-MB-468 cells by immunoblotting assay; format: cell-based

Chain of Signal transducer and activator of transcription 3 (Homo sapiens) (P40763 whole entry): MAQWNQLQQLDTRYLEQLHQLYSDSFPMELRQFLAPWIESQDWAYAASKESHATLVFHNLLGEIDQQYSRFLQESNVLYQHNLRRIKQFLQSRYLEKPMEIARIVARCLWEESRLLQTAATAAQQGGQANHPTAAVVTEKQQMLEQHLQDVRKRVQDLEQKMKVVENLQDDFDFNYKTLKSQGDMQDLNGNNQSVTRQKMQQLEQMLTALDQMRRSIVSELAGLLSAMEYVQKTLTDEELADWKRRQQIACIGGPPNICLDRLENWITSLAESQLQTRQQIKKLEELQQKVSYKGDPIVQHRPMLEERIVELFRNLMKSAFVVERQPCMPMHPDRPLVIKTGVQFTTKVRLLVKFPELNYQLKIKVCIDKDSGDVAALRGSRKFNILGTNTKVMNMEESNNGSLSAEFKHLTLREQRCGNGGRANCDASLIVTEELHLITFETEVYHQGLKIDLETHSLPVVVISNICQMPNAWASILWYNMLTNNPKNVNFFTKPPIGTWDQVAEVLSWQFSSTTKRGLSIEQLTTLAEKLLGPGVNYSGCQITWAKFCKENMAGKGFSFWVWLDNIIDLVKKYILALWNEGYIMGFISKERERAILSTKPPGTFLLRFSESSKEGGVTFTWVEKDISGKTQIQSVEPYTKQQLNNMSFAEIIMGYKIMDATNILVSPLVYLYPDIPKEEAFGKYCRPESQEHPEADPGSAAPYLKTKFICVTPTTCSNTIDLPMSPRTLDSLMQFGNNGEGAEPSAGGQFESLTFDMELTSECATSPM

## CC[C@@]1(O)CCc2c(O)c3c(c(O)c2[C@H]1O[C@H]1C[C@H](N(C)C)[C@@H](O[C@H]2C[C@H](O)[C@@H](O[C@H]4CC[C@H](O)[C@H](C)O4)[C@H](C)O2)[C@H](C)O1)C(=O)c1cccc(O)c1C3=O
[1]
  inhibition: inactive
MCF7
  Activity: inactive
HCT-116
  Activity: inactive
[2]
  inhibition: inactive
DU-145
  Activity: inactive
MDA-MB-468 [3]
  Activity: inactive
MDA-MB-468 [4]
  Activity: inactive

## CO[C@H](C(=O)[C@@H](O)[C@@H](C)O)[C@@H]1Cc2cc3cc(O[C@H]4C[C@@H](O[C@@H]5C[C@@H](O)[C@H](O)[C@@H](C)O5)[C@H](O)[C@@H](C)O4)c(C)c(O)c3c(O)c2C(=O)[C@H]1O[C@H]1C[C@@H](O[C@@H]2C[C@@H](O)[C@@H](O[C@@H]3C[C@](C)(O)[C@H](O)[C@@H](C)O3)[C@@H](C)O2)[C@H](O)[C@@H](C)O1
[2]
  inhibition: inactive

## CC[C@@]1(O)C[C@H](O[C@H]2C[C@H](N(C)C)[C@@H](O[C@H]3C[C@H](O)[C@@H](O[C@H]4CC[C@H](O)[C@H](C)O4)[C@H](C)O3)[C@H](C)O2)c2c(O)c3c(c(O)c2[C@H]1O[C@H]1C[C@H](N(C)C)[C@@H](O[C@H]2CC[C@H](O[C@H]4CC[C@H](O)[C@H](C)O4)[C@H](C)O2)[C@H](C)O1)C(=O)c1cccc(O)c1C3=O [COSMOMYCIN C]
[5]
  Activity: Active
[6]
  Activity: Active
[7]
  Activity: Dose-dependent effect
MDA-MB-468 [8]
  Activity: 54.64%
[1]
  inhibition: Dose-dependent effect
[9]
  inhibition: inactive
MDA-MB-468 [10]
  Activity: 8.82%
[11]
  inhibition: Active
MCF7
  Activity: inactive
[12]
  Activity: Dose-dependent effect
[13]
  Activity: Active
[14]
  Activity: Dose-dependent effect
HCT-116
  Activity: inactive
MDA-MB-468 [15]
  Activity: 7.93%
[16]
  inhibition: Active
MDA-MB-468 [17]
  Activity: 26.91%
[2]
  inhibition: Dose-dependent effect
[18]
  Activity: Dose-dependent effect
MDA-MB-468 [19]
  Activity: 8.78%
MDA-MB-468 [20]
  Activity: Active
MDA-MB-468 [21]
  Activity: 59.53%
MDA-MB-468 [22]
  Activity: 25.52%
MDA-MB-468 [23]
  Activity: 9.47%
MDA-MB-468 [24]
  Activity: 49.9%
[25]
  Activity: Active
DU-145
  Activity: Dose-dependent effect
MDA-MB-468 [26]
  Activity: 10.52%
MDA-MB-468 [27]
  Activity: 22.18%
MDA-MB-468 [3]
  Activity: Dose-dependent effect
MDA-MB-468 [3]; MDA-MB-468, 24 h
  pIC50: 6.68
MDA-MB-468 [28]
  Activity: 15.81%
[29]
  Activity: Dose-dependent effect
MDA-MB-468 [4]
  Activity: inactive
